Assay results reported in the supplement of paper PMC10307832.

Assays:
Assay in all cases: relative viability (nuclei count vs DMSO), 5 days (fraction); higher = more cells survive
Carfilzomib + Linsitinib = compound: CC(C)C[C@H](NC(=O)[C@H](CCc1ccccc1)NC(=O)CN1CCOCC1)C(=O)N[C@@H](Cc1ccccc1)C(=O)N[C@@H](CC(C)C)C(=O)[C@@]1(C)CO1 [Carfilzomib] + C[C@]1(O)C[C@@H](c2nc(-c3ccc4ccc(-c5ccccc5)nc4c3)c3c(N)nccn32)C1 [Linsitinib] (partner 1 µM)
Summary of the method: (§1)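 Five library-drug doses in √10 steps were combined with a fixed anchor-drug dose, or a single drug was given alone, by pin tool to lung cancer cell lines in 1536-well plates the day after seeding. Nuclei were stained and counted after 5 days. Relative viability is the nuclei count in treated wells over that in vehicle wells, taken as the median of duplicate plates.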

Olaparib + OSI-027 = compound: O=C(c1cc(Cc2n[nH]c(=O)c3ccccc23)ccc1F)N1CCN(C(=O)C2CC2)CC1 [Olaparib] + COc1cccc2cc(-c3nc([C@H]4CC[C@H](C(=O)O)CC4)n4ncnc(N)c34)[nH]c12 [OSI-027] (partner 0.5 µM)
Summary of the method: as §1

Crizotinib + Linsitinib = compound: C[C@@H](Oc1cc(-c2cnn(C3CCNCC3)c2)cnc1N)c1c(Cl)ccc(F)c1Cl [Crizotinib] + C[C@]1(O)C[C@@H](c2nc(-c3ccc4ccc(-c5ccccc5)nc4c3)c3c(N)nccn32)C1 [Linsitinib] (partner 1 µM)
Summary of the method: as §1

Olaparib + Dasatinib = compound: O=C(c1cc(Cc2n[nH]c(=O)c3ccccc23)ccc1F)N1CCN(C(=O)C2CC2)CC1 [Olaparib] + Cc1nc(Nc2ncc(C(=O)Nc3c(C)cccc3Cl)s2)cc(N2CCN(CCO)CC2)n1 [Dasatinib] (partner 0.075 µM)
Summary of the method: as §1

Cell Line	relative viability (Carfilzomib + Linsitinib; first compound 0.001 µM)	relative viability (Carfilzomib + Linsitinib; first compound 0.003162 µM)	relative viability (Carfilzomib + Linsitinib; first compound 0.01 µM)	relative viability (Carfilzomib + Linsitinib; first compound 0.03162 µM)	relative viability (Carfilzomib + Linsitinib; first compound 0.1 µM)	relative viability (Olaparib + OSI-027; first compound 0.08 µM)	relative viability (Olaparib + OSI-027; first compound 0.253 µM)	relative viability (Olaparib + OSI-027; first compound 2.53 µM)	relative viability (Olaparib + OSI-027; first compound 8 µM)	relative viability (Crizotinib + Linsitinib; first compound 0.01 µM)	relative viability (Crizotinib + Linsitinib; first compound 0.1 µM)	relative viability (Crizotinib + Linsitinib; first compound 0.3162 µM)	relative viability (Crizotinib + Linsitinib; first compound 1 µM)	relative viability (Olaparib + Dasatinib; first compound 0.08 µM)	relative viability (Olaparib + Dasatinib; first compound 0.253 µM)	relative viability (Olaparib + Dasatinib; first compound 2.53 µM)	relative viability (Olaparib + Dasatinib; first compound 8 µM)	relative viability (Crizotinib + Linsitinib; first compound 0.03162 µM)
201T	0.992	1.07	1.1	1.09	1.02	0.724	0.611	0.699	0.764	1.02	1.04	1.03	1.12	0.576	0.558	0.46	0.501	
A549	0.478	0.756	0.546	0.231	0.0396					0.527	0.52		0.707					0.568
A-427	1.12	1.11	1.11	1.01	0.119	0.558	0.469	0.396	0.389	1.1	1.16		1.1	0.793	0.691	0.586	0.54	1.12
ABC-1	0.837	0.665	0.527	0.235	0.242	0.801	0.52	0.488	0.55	0.95	1.12	1.09		0.639	0.609	0.586	0.676	0.843
BEN	0.968	1.21	0.965	0.865	0.392		0.268	0.301	0.296	0.843	0.818	1.04	0.916		0.32	0.325	0.35	0.844
CAL-12T	0.836	0.923	0.876	0.57	0.112	1.05	0.568	0.602	0.627	0.753	0.708	0.748		0.597	0.281	0.363	0.283	0.904
COR-L23	0.939	1.05	0.867	0.0469	0.0604	0.723	0.635	0.712	0.424		0.844	0.802	0.925	0.539	0.437	0.314	0.23	0.876
COR-L 105	0.937	1.05	0.879	0.297	0.249	0.77	0.679	0.487	0.584	1.14	0.929	0.956	0.972	0.34	0.403	0.356	0.288	1
Calu-6	0.941	1.15	0.934	0.202	0.08					0.939	0.861	0.938	0.955					1.05
ChaGo-K-1						0.649	0.506	0.533	0.464					0.576	0.577	0.567	0.445	
EBC-1	0.87	0.989	0.735	0.0736	0.0886						0.889	0.159	0.167					0.886
EKVX	0.927	1.2	1.08	1.01	0.33	0.79	0.626	0.61	0.765	1	1.02	1	0.975	0.271	0.406	0.428	0.599	0.998
EMC-BAC-2	0.78	0.786	0.844	0.836	0.401	0.41	0.364	0.357	0.358	0.758	0.809	0.798	0.81	0.365	0.382	0.471	0.338	0.834
EPLC-272H	1.04	1.32	1.16	0.193	0.0783	0.334	0.286	0.31	0.299	1.18	1.17	1.14	1.27	0.43	0.293	0.414	0.338	1.11
H3255	0.942	1.06	0.995	0.739	0.373	0.591	0.56	0.764	0.548	0.806	0.974	0.841	0.962	0.401	0.274	0.491	0.425	0.924
HARA	0.89	1.03	1.07	0.0722	0.0537	0.68	0.446	0.47	0.438	0.919	0.778	0.976	0.873	0.36	0.286	0.255	0.237	0.978
HCC-15	0.847	0.958	0.937	0.765	0.168	0.83	0.652	0.6	0.638	0.819	0.864	0.886	0.946	0.659	0.584	0.655	0.631	0.934
HCC-44	0.592	0.75	0.673	0.487	0.174	0.55	0.424	0.434	0.565	0.646	0.595	0.704	0.719					0.721
HCC-78	0.554	0.585	0.545	0.385	0.214	0.373	0.379	0.349	0.332	0.489	0.459	0.433	0.372	0.451	0.31	0.426	0.331	0.529
HCC-366	0.657	0.666	0.611	0.557	0.0209	0.856	0.796	0.762	0.568	0.64	0.649		0.608	0.484	0.503	0.498	0.253	0.679
HCC-827	0.941	0.979	1.05	0.848	0.406	0.772	0.732	0.872	0.65	0.927		0.946	0.958	0.27	0.315	0.387	0.281	0.931
HOP-62	0.991	0.992	0.924	0.133	0.0627	0.863	0.801	0.809	0.712	0.81	1.1	0.956	0.816	0.691	0.563	0.579	0.492	0.946

Cell Line	relative viability (Carfilzomib + Linsitinib; first compound 0.001 µM)	relative viability (Carfilzomib + Linsitinib; first compound 0.003162 µM)	relative viability (Carfilzomib + Linsitinib; first compound 0.01 µM)	relative viability (Carfilzomib + Linsitinib; first compound 0.03162 µM)	relative viability (Carfilzomib + Linsitinib; first compound 0.1 µM)	relative viability (Olaparib + OSI-027; first compound 0.08 µM)	relative viability (Olaparib + OSI-027; first compound 0.253 µM)	relative viability (Olaparib + OSI-027; first compound 2.53 µM)	relative viability (Olaparib + OSI-027; first compound 8 µM)	relative viability (Crizotinib + Linsitinib; first compound 0.01 µM)	relative viability (Crizotinib + Linsitinib; first compound 0.1 µM)	relative viability (Crizotinib + Linsitinib; first compound 0.3162 µM)	relative viability (Crizotinib + Linsitinib; first compound 1 µM)	relative viability (Olaparib + Dasatinib; first compound 0.08 µM)	relative viability (Olaparib + Dasatinib; first compound 0.253 µM)	relative viability (Olaparib + Dasatinib; first compound 2.53 µM)	relative viability (Olaparib + Dasatinib; first compound 8 µM)	relative viability (Crizotinib + Linsitinib; first compound 0.03162 µM)
IA-LM	0.58	0.687	0.836	0.0717	0.0278					0.611	0.649	0.507	0.609					0.748
LC-2-ad	0.879	0.907	0.907	0.462	0.151	0.926	0.731	0.856	0.796	0.872	0.762		0.852	0.99	0.454	0.472	0.491	0.879
LCLC-97TM1	0.205	0.178	0.207	0.119	0.127	0.525	0.527	0.587	0.323	0.17	0.177	0.19	0.168	0.871	0.789	0.857	0.776	0.195
LCLC-103H	0.951	0.882	1.06	1.11	0.296	0.52	0.432	0.512	0.412	0.985	1	1.15	1.3	0.61	0.49	0.445	0.532	1.07
LK-2	0.815	0.837	0.497	0.18	0.177	0.2	0.193	0.189	0.175	0.431	0.541	0.458	0.709	0.27	0.329	0.271	0.225	0.523
LOU-NH91	1.01	1.14	0.67	0.334	0.298	0.764	0.638	0.764	0.729	0.902	0.963	0.991	0.939	0.6	0.473	0.525	0.589	0.916
LU99A	0.547	0.514	0.508	0.225	0.159	0.31	0.274	0.288	0.258	0.477	0.528	0.486	0.579	0.624	0.467	0.506	0.228	0.541
LXF-289	1	1.03	0.982	0.097	0.083	0.955	0.761	0.759	0.755	0.91	0.983	0.906	0.937	0.217	0.172	0.196	0.171	0.972
NCI-H23	0.537	0.708	0.567	0.206	0.12	0.8	0.58	0.465	0.367	0.557	0.619		0.774	0.922	0.802	0.61	0.488	0.642
NCI-H322M	0.806	0.929	0.913	0.99	0.489	0.713	0.523	0.518	0.456	0.811	1	0.96	0.903	0.251	0.231	0.248	0.252	0.954
NCI-H358	0.793	0.977	0.717	0.15	0.16	0.648	0.727	0.727	0.588	0.663	0.744	0.779	0.899	0.152	0.181	0.167	0.146	0.658
NCI-H441	0.569	0.451	0.233	0.104	0.115	0.683	0.724	0.642	0.581	0.564	0.575	0.382	0.551	0.818	0.542	0.651	0.589	0.498
NCI-H522						0.783	0.659	0.723	0.642					0.913	0.884	0.846	0.782	
NCI-H1299	1.02	1.05	0.971	0.239	0.106					0.988	1.02	0.99	0.984					0.992
NCI-H1623						0.511	0.457	0.474	0.42					0.568	0.504	0.6	0.494	
NCI-H1648							0.25		0.223									
NCI-H1650						0.842	0.515	0.72	0.816					0.313	0.342	0.287	0.285	
NCI-H1703	0.91	1.22	0.44	0.132	0.0996					0.773	0.727	0.777	0.654					0.852
NCI-H2170						0.809	0.685	0.679	0.694					0.471	0.629	0.47	0.638	
NCI-H2342						0.565	0.54	0.55	0.564					0.293	0.262	0.312	0.293	
SW 900						0.693	0.561	0.565	0.458					0.57	0.815	0.624	0.615	
